The values below come from EP0029306A1, “Aminoalkyl compounds, their production and pharmaceutical compositions containing them” (GLAXO GROUP LIMITED, priority 1979, dated 1981).

Where two headings read alike, the source gives them in different places.

The test concerns histamine induced gastric acid secretion. In words: Inhibition of histamine induced gastric acid secretion in the perfused rat stomach preparation. The class given is in vivo. Conditions: sodium pentobarbitone anaesthesia.

For orientation: ED50 means the midpoint of the dose-response relation. For the compound `Cn1nc(CO)nc1NCCCCCOc1cccc(CN2CCCCC2)c1` [2(a)], the ED50 (read-out: ED50) came to 0.2 mg/kg.

As for `CC(=O)Nc1nc(NCCCCCOc2cccc(CN3CCCCC3)c2)n(C)n1` [Example 3], the ED50 (read-out: ED50) is 0.22 mg/kg.

The compound “3-Phenylmethyl-5-[[2-[2-[3-(1-piperidinylmethyl)phenoxy] ethoxy]ethyl]amino]-1H-1,2,4-triazole [Example 4]” gave a 50% effective dose (ED50) of 0.17 mg/kg.

For `CNC(=C[N+](=O)[O-])NCCCCCOc1cccc(CN2CCCCC2)c1` [5(b), N-[5-[3-(1-Piperidinylmethyl)phenoxy]pentyl]-N^1methyl-2-nitro-l,l-ethenediamine], the ED50 turned out to be 0.027 mg/kg.

`Cn1nc(N)nc1NCCCCCOc1cccc(CN2CCCCC2)c1` [1(b), 1-methyl-N^5-[5-[3-(1-piperidinyl-methyl)phenoxy]pentyl]-1H-1,2,4-triazole-3,5-diamine]: where the note is “read-out: ED50”, the ED50 was determined as 0.19 mg/kg.
